Type in all cases: cell-based
Series [1] has as its system MCF-7 breast cancer cells. Put plainly: growth of MCF-7 breast cancer cells (cell counting). As to conditions: 10 μg/mL for 48 hours; number of cells counted; FIG. 15.
The next series deals with T1, estrogen receptor ERα (Homo sapiens, UniProt P03372).
T1 sequence (P03372 1-595): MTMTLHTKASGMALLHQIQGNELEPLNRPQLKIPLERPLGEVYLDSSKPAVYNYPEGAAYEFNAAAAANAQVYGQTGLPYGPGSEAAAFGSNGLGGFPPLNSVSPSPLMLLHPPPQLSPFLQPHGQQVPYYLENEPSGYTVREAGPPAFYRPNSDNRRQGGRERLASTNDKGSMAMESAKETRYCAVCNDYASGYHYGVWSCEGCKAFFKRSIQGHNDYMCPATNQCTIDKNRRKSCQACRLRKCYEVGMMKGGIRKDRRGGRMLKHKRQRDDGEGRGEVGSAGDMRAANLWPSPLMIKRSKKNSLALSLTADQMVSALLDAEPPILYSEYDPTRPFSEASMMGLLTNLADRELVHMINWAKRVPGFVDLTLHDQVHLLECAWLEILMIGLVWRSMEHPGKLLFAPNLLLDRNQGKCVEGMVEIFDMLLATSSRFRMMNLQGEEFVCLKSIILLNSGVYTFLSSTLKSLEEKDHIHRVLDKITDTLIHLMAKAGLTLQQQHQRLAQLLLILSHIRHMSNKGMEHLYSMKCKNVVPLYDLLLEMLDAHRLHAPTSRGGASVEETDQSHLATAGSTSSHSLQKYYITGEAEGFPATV
Briefly: human ERα reporter assay (ERE-luc, Indigo Bioscience #IB00421-48P). Particulars: for activity of ERα: Test Example 3, same manner as Test Example 1, FIG. 16; for increase of the activity of the estrogen receptor ERα: Test Example 1, 10 μg/mL for 24 hours, FIG. 11, FIG. 14. On the procedure: (§1) After treating each of the novel ginsenoside GS #10 according to an exemplary embodiment of the present disclosure and other ginsenosides GS #01 to GS #06 isolated from the ginseng seed extract with a human ERα/β reporter assay panel (#IB00421-48P; Indigo Bioscience) at a concentration of 10 μg/mL for 24 hours, the increase of the activity of the estrogen receptors ERα and ERβ was analyzed. The #IB00421-48P kit comprises cells in which ERα and ERβ are overexpressed, respectively, and comprises the ERE-luc reporter gene. If the activity of the ER is increased by treating with the example or a comparative example, ERα and ERβ bind to ERE, thereby inducing the expression of luciferase. Therefore, the activity of ERα and ERβ can be measured by measuring the light intensity of the cells. As the comparative example, a methanol extract of ginseng seed (seeds of Panax ginseng) used for the isolation of the ginsenosides in Example 1 was used.
(§2) It is reported that, although the increased activity of the estrogen receptors ERα and ERβ can lead to alleviation of menopausal symptoms, ERs are overexpressed in more than 70% of breast cancer cells, mainly due to increased ERα (ESR1) (see Deroo B J et al., J Clin Invest 116:561 (2006)).
(§3) The effect of preventing or improving menopausal symptoms of the novel ginsenoside […] according to an exemplary embodiment of the present disclosure was compared with that of ginsenosides Rg1, Rg3 and Rb1 (purchased from Sigma), which are red ginseng marker compounds, as comparative examples. Ginsenoside Rg3 has the following chemical structure. The experiment was performed in the same manner as in Test Example 1.
(In general: Reporter assays use an easily measured gene product as a stand-in for the process of interest.)

A further series deals with estrogen receptor ERβ (Homo sapiens, UniProt Q92731). Briefly: human ERβ reporter assay (ERE-luc, Indigo Bioscience #IB00421-48P). Particulars: for activity of ERβ: same manner as Test Example 1. Here is the method:
as §1, §2, §3

A further series concerns SH-SY5Y cells. Put plainly: cytotoxicity, cell counting kit (CCK-8). Particulars: 0.1, 1, 5, 10, 20 and 50 μM, FIG. 18. On the procedure: Cell growth in the presence of the novel ginsenoside GS #10 according to an exemplary embodiment of the present disclosure was evaluated using a cell counting kit (CCK-8) in order to exclude the possibility that the ginsenoside may affect the effect of preventing or improving menopausal symptoms through cytotoxic activity. The experimental method is as follows.
10 μL of a CCK-8 reagent was added to SH-SY5Y cells (Dojindo, Md., USA) in a 96-well plate and left at 37° C. for 2 hours. Then, absorbance was measured at 450 nm. Cell viability was represented as the percentage (%) of the absolute optical density of each sample relative to an untreated sample. The concentration of the novel ginsenoside GS #10 according to an exemplary embodiment of the present disclosure in the medium in which the cells were cultured was 0.1, 1, 5, 10, 20 and 50 μM, respectively.
A general note: Formazan colour is commonly taken as a measure of viable cells.

The structures appear in SMILES notation. “Also recorded” adds a separate entry of the source.

Sequence of estrogen receptor ERβ (Q92731 whole entry): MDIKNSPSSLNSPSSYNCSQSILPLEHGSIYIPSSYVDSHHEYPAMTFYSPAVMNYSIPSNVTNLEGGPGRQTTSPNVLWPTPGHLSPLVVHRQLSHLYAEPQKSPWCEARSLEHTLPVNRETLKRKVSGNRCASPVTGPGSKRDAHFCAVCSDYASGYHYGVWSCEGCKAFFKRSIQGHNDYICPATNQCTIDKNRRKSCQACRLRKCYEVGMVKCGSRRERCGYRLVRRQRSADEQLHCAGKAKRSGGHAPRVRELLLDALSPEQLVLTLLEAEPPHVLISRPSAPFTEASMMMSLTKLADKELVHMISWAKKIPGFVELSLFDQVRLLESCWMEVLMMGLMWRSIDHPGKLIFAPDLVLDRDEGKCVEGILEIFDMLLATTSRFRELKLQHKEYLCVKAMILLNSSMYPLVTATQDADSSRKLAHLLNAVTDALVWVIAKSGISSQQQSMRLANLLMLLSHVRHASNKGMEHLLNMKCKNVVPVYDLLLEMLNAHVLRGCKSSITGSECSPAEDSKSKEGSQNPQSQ

Consider `C[C@]12CC[C@@H]3c4ccc(O)cc4CC[C@H]3[C@@H]1CC[C@@H]2O` [17β-estradiol, 17β-Estradiol, reference compound], for which, in series [1], the “growth of MCF-7 breast cancer cells (side effect of promoting cancer cell growth)” value is “promoted the growth of the breast cancer cells”.

With `CC(C)=CCC[C@](C)(O[C@@H]1O[C@H](CO)[C@@H](O)[C@H](O)[C@H]1O)[C@H]1CC[C@]2(C)[C@@H]1[C@H](O)C[C@@H]1[C@@]3(C)CC[C@H](O)C(C)(C)[C@@H]3[C@@H](O[C@@H]3O[C@H](CO)[C@@H](O)[C@H](O)[C@H]3O)C[C@]12C` [GS #01, ginsenoside Rg1], the “activity of ERα” value on estrogen receptor ERα is reported as “activated the estrogen receptors to some extent”.

`CC(C)=CCC[C@](C)(O[C@@H]1O[C@H](CO)[C@@H](O)[C@H](O)[C@H]1O)[C@H]1CC[C@]2(C)[C@@H]1[C@H](O)C[C@@H]1[C@@]3(C)CC[C@H](O)C(C)(C)[C@@H]3[C@@H](O[C@@H]3O[C@H](CO)[C@@H](O)[C@H](O)[C@H]3O[C@@H]3O[C@@H](C)[C@H](O)[C@@H](O)[C@H]3O)C[C@]12C` [GS #03, ginsenoside Re]: the “increase of the activity of the estrogen receptor ERα” value on estrogen receptor ERα is “slightly increased the activity of ERα”.

Take `CC(C)=CCC[C@](C)(O[C@@H]1O[C@H](CO[C@@H]2O[C@H](CO)[C@@H](O)[C@H](O)[C@H]2O)[C@@H](O)[C@H](O)[C@H]1O)[C@H]1CC[C@]2(C)[C@@H]1[C@H](O)C[C@@H]1[C@@]3(C)CC[C@H](O[C@@H]4O[C@H](CO)[C@@H](O)[C@H](O)[C@H]4O[C@@H]4O[C@H](CO)[C@@H](O)[C@H](O)[C@H]4O)C(C)(C)[C@@H]3CC[C@]12C` [GS #05, ginsenoside Rb1]: on estrogen receptor ERα, the “increase of the activity of the estrogen receptor ERα” value is listed as “slightly increased the activity of ERα” and the “activity of ERα” value is given as “activated the estrogen receptors to some extent”.

As for `CC1(C)C(=O)CC[C@@]2(C)C1[C@@H](O[C@H]1OC(CO)[C@H](O)C(O)C1O[C@H]1OC(CO)[C@H](O)C(O)C1O)C[C@]1(C)C2C[C@@H](O)C2C([C@]3(C)CC[C@H](C(C)(C)O)O3)CC[C@]21C` (stereo partly drawn) [GS #10, (20S,24R)-6-O-β-D-glucopyranosyl(1→2)-β-D-glucopyranoside-dammar-3-one-20,24-epoxy-6a,12b,25-triol], in series [1], the “growth of MCF-7 breast cancer cells (side effect of promoting cancer cell growth)” value was “did not show such a side effect”. Also, the “increase of the activity of the estrogen receptor ERβ” value on estrogen receptor ERβ (Test Example 1, 10 μg/mL for 24 hours, FIG. 12, FIG. 14) is on record as “activated ERβ; also recorded: had an effect of increasing the activity”. Besides, the “activity ratio of ERβ to ERα compared with red ginseng marker compounds” value on estrogen receptor ERβ (Test Example 3, FIG. 16 and FIG. 17) was “higher than the ginsenosides Rb1, Rg1 and Rg3”. At estrogen receptor ERβ (Test Example 3, FIG. 17), the “activity of ERβ as compared to the ginsenosides Rg1 and Rb1” value is “at least 3 times”; the “activity of ERβ” value is 136%. Further, in the series with SH-SY5Y cells, the “cytotoxicity (cell viability)” value is “did not exhibit cytotoxicity up to 50 μM”. Besides, at estrogen receptor ERα, the “increase of the activity of the estrogen receptor ERα” value is “slightly increased the activity of ERα; also recorded: had an effect of increasing the activity”; the “activity of ERα” value was “not higher than Rg1 and Rb1”.

As to `CC(C)=CCC[C@](C)(O)[C@H]1CC[C@]2(C)[C@@H]1[C@H](O)C[C@@H]1[C@@]3(C)CC[C@H](O[C@@H]4O[C@H](CO)[C@@H](O)[C@H](O)[C@H]4O[C@@H]4O[C@H](CO)[C@@H](O)[C@H](O)[C@H]4O)C(C)(C)[C@@H]3CC[C@]12C` [Rg3, Ginsenoside Rg3, reference compound], at estrogen receptor ERβ (Test Example 3, FIG. 17), the “activity of ERβ” value is reported as “activated the estrogen receptors to some extent”. Further, at estrogen receptor ERα, the “activity of ERα” value is given as “activated the estrogen receptors to some extent”.

The record behind these values is patent US11633413B2, “Composition for preventing or improving menopausal symptom comprising novel ginsenoside” (AMOREPACIFIC CORPORATION, priority 2019, dated 2023).
